Measured values from patent US12172983B2, “EGFR inhibitors” (Blueprint Medicines Corporation, priority 2019, dated 2024).
Where two headings read alike, the source gives them in different places.

Key:
[1] = system: phosphorylation of EGFR (Tyr1068) in NCI-H1975 cell line that harbors the EGFR L858R T790M mutations; experiment: NCI-H1975 pEGFR AlphaLISA assay; assay type: cell-based; details: 4-5 hours incubation, read-out: Ext pEGFR H1975
Summary of the method: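 Phospho-EGFR Tyr1068 AlphaLISA readout: lysates taken from compound-treated H1975 cells (L858R T790M EGFR) after a 4-5 h exposure at 37 °C. Cells had adhered overnight beforehand. IC50 derived by plotting % pEGFR inhibition against log compound concentration.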

EGFR (L858R T790M C797S) = molecular target: T1, EGFR (L858R T790M C797S) (Homo sapiens, UniProt P00533, C797S/L858R/T790M); experiment: Biochemical EGFR inhibition assay (Caliper mobility shift), EGFR LRTMCS mutant; details: inhibitory activity against EGFR LRTMCS mutant; apparent IC50; read-out: Ext Enz LRTMCS
T1 construct: purchased SignalChem E10-122VG
Summary of the method: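 Caliper mobility shift read-out: product and substrate peptides separated by electrophoresis and quantified. Reactions at 25° C. taken to 10–20% peptide phosphorylation, quenched with 35 mM EDTA. Apparent IC50 from percent activity vs log [compound].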

[2] = Homo sapiens, NCI-H1975, inhibition of phosphorylation of mutant EGFR in NCI-H1975 cells
[3] = inhibition of phosphorylation of mutant EGFR in NCI-H1975 cells

T1 sequence (P00533 25-1210 T790M/C797S/L858R): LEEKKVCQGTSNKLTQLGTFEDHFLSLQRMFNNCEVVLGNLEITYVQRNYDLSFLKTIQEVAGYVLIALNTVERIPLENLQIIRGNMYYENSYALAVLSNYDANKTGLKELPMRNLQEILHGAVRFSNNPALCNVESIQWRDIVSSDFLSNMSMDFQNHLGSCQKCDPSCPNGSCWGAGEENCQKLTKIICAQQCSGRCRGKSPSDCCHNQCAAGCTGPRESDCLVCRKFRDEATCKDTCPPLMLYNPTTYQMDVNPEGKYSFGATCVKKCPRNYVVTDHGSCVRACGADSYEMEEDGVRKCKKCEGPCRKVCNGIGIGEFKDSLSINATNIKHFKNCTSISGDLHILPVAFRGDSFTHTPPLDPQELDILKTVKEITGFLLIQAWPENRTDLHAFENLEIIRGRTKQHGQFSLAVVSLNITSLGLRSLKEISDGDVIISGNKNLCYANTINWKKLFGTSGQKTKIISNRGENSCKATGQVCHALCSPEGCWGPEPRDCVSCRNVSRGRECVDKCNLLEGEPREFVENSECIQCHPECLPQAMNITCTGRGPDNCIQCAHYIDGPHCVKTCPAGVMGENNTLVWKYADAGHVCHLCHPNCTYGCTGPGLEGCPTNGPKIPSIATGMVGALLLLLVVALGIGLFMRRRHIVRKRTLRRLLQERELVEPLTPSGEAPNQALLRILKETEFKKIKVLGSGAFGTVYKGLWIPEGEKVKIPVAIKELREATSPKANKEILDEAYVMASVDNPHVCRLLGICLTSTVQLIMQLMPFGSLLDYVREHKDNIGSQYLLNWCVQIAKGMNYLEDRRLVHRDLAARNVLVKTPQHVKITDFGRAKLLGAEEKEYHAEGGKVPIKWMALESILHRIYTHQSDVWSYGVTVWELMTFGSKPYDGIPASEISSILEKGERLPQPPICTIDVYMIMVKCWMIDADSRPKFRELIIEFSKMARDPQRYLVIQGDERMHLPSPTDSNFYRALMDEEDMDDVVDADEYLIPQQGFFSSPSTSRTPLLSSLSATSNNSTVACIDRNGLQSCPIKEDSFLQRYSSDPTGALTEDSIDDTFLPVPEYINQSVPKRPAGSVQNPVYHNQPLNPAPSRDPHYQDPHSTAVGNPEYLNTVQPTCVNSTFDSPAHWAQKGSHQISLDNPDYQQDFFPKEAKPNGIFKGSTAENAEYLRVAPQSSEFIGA

IC50 [1, 2] [µM] | IC50 (EGFR (L858R T790M C797S)) [µM] | IC50 [1, 3] [µM] | Structure (SMILES)
0.0101 to 0.02 | ≤ 0.015 | – | CCS(=O)(=O)C[C@H]1CN(c2ccc(F)c3cc(Nc4ccnc(N5CC[C@@H](OC)[C@@H](F)C5)n4)ncc23)[C@@H]1C [Compound 85, 8-[(2R,3S)-3-[(ethanesulfonyl)methyl]-2-methylazetidin-1-yl]-5-fluoro-N-{2-[(3S,4R)-3-fluoro-4-methoxypiperidin-1-yl]pyrimidin-4-yl}isoquinolin-3-amine]
0.0201 to 0.03 | ≤ 0.015 | – | COCCO[C@@H]1CCN(c2nccc(Nc3cc4c(F)ccc(N5C[C@H](CS(C)(=O)=O)[C@H]5C)c4cn3)n2)C[C@@H]1F (single isomer, unassigned) [Compound 217]
– | ≤ 0.015 | ≤ 0.01 | CC(C)c1ccc(N2C[C@H](CS(C)(=O)=O)[C@H]2C)c2cnc(Nc3ccnc(N4CC[C@@H](OC[C@H](C)O)[C@@H](F)C4)n3)cc12 (single isomer, unassigned) [Compound 248, (2R)-1-{[(3S,4R)-3-fluoro-1-[4-({8-[(2R,3S)-3-(methanesulfonylmethyl)-2-methylazetidin-1-yl]-5-(propan-2-yl)isoquinolin-3-yl}amino)pyrimidin-2-yl]piperidin-4-yl]oxy}propan-2-ol or (2S)-1-{[(3S,4R)-3-fluoro-1-[4-({8-[(2R,3S)-3-(methanesulfonylmethyl)-2-methylazetidin-1-yl]-5-(propan-2-yl)isoquinolin-3-yl}amino)pyrimidin-2-yl]piperidin-4-yl]oxy}propan-2-ol]
≤ 0.01 | ≤ 0.015 | – | CO[C@H]1CCN(c2nncc(Nc3cc4c(C(C)C)ccc(N5CC(CS(C)(=O)=O)C5)c4cn3)n2)C[C@H]1F [Compound 76, N-{3-[(3R,4S)-3-fluoro-4-methoxypiperidin-1-yl]-1,2,4-triazin-5-yl}-8-[3-(methanesulfonylmethyl)azetidin-1-yl]-5-(propan-2-yl)isoquinolin-3-amine]
– | 0.0201 to 0.03 | 0.0101 to 0.02 | CO[C@]1(C)CN(c2nccc(Nc3cc4c(C(C)C)ccc(N5CC(CS(C)(=O)=O)C5)c4cn3)n2)CC[C@@H]1O (single isomer, unassigned) [Compound 95, (3S,4R)-1-[4-({8-[3-(methanesulfonylmethyl)azetidin-1-yl]-5-(propan-2-yl)isoquinolin-3-yl}amino)pyrimidin-2-yl]-3-methoxy-3-methylpiperidin-4-ol or (3R,4S)-1-[4-({8-[3-(methanesulfonylmethyl)azetidin-1-yl]-5-(propan-2-yl)isoquinolin-3-yl}amino)pyrimidin-2-yl]-3-methoxy-3-methylpiperidin-4-ol]
0.0301 to 0.05 | ≤ 0.015 | – | CC(C)c1ccc(N2CC(CS(C)(=O)=O)C2)c2cnc(Nc3ccnc(N4C[C@H]5C[C@@H]4C[C@H]5O)n3)cc12 (single isomer, unassigned) [Compound 11, (1R,4R,5R)-2-[4-({8-[3-(methanesulfonylmethyl)azetidin-1-yl]-5-(propan-2-yl)isoquinolin-3-yl}amino)pyrimidin-2-yl]-2-azabicyclo[2.2.1]heptan-5-ol or (1S,4S,5S)-2-[4-({8-[3-(methanesulfonylmethyl)azetidin-1-yl]-5-(propan-2-yl)isoquinolin-3-yl}amino)pyrimidin-2-yl]-2-azabicyclo[2.2.1]heptan-5-ol]
≤ 0.01 | ≤ 0.015 | – | CCS(=O)(=O)C[C@H]1CN(c2cnc(C(C)C)c3cc(Nc4ccnc(N5CC[C@H](OCCO)[C@H](F)C5)n4)ncc23)[C@@H]1C [Compound 299, 2-{[(3R,4S)-1-[4-({8-[(2R,3S)-3-[(ethanesulfonyl)methyl]-2-methylazetidin-1-yl]-5-(propan-2-yl)-2,6-naphthyridin-3-yl}amino)pyrimidin-2-yl]-3-fluoropiperidin-4-yl]oxy}ethan-1-ol]
≤ 0.01 | 0.0201 to 0.03 | – | CC(C)c1ccc(N2C[C@H](CS(C)(=O)=O)[C@H]2C)c2cnc(Nc3ccnc(N4CC[C@@](C)(O)C(F)(F)C4)n3)cc12 (single isomer, unassigned) [Compound 211, (R)-3,3-difluoro-1-(4-(5-isopropyl-8-((2R,3S)-2-methyl-3-(methylsulfonylmethyl)azetidin-1-yl)isoquinolin-3-ylamino)pyrimidin-2-yl)-4-methylpiperidin-4-ol or (S)-3,3-difluoro-1-(4-(5-isopropyl-8-((2R,3S)-2-methyl-3-(methylsulfonylmethyl)azetidin-1-yl)isoquinolin-3-ylamino)pyrimidin-2-yl)-4-methylpiperidin-4-ol]
≤ 0.01 | ≤ 0.015 | – | CCS(=O)(=O)CC1CN(c2ccc(C(C)C)c3cc(Nc4ccnc(N5CC[C@@H](O)[C@@](C)(F)C5)n4)ncc23)C1 (single isomer, unassigned) [Compound 110]
0.0101 to 0.02 | ≤ 0.015 | – | CO[C@H]1CCN(c2nccc(Nc3cc4c([C@@H](C)CO)cnc(N5C[C@H](CS(C)(=O)=O)[C@H]5C)c4cn3)n2)C[C@H]1F (single isomer, unassigned) [Compound 208, (2R)-2-[6-({2-[(3R,4S)-3-fluoro-4-methoxypiperidin-1-yl]pyrimidin-4-yl}amino)-1-[(2R,3S)-3-(methanesulfonylmethyl)-2-methylazetidin-1-yl]-2,7-naphthyridin-4-yl]propan-1-ol or (2S)-2-[6-({2-[(3R,4S)-3-fluoro-4-methoxypiperidin-1-yl]pyrimidin-4-yl}amino)-1-[(2R,3S)-3-(methanesulfonylmethyl)-2-methylazetidin-1-yl]-2,7-naphthyridin-4-yl]propan-1-ol]
≤ 0.01 | ≤ 0.015 | – | CC(C)c1ccc(N2C[C@H](CS(C)(=O)=O)[C@H]2C)c2cnc(Nc3ccnc(N4CC[C@](C)(O)[C@H](O)C4)n3)cc12 (single isomer, unassigned) [Compound 100, (3R,4S)-1-[4-({8-[(2R,3S)-3-(methanesulfonylmethyl)-2-methylazetidin-1-yl]-5-(propan-2-yl)isoquinolin-3-yl}amino)pyrimidin-2-yl]-4-methylpiperidine-3,4-diol or (3S,4R)-1-[4-({8-[(2R,3S)-3-(methanesulfonylmethyl)-2-methylazetidin-1-yl]-5-(propan-2-yl)isoquinolin-3-yl}amino)pyrimidin-2-yl]-4-methylpiperidine-3,4-diol]
≤ 0.01 | ≤ 0.015 | – | CO[C@H]1CCN(c2nncc(Nc3cc4c(C(C)C)ccc(N5C[C@H](CS(C)(=O)=O)[C@H]5C)c4cn3)n2)C[C@H]1F [Compound 133, N-{3-[(3R,4S)-3-fluoro-4-methoxypiperidin-1-yl]-1,2,4-triazin-5-yl}-8-[(2R,3S)-3-(methanesulfonylmethyl)-2-methylazetidin-1-yl]-5-(propan-2-yl)isoquinolin-3-amine]
≤ 0.01 | ≤ 0.015 | – | CCS(=O)(=O)C[C@H]1CN(c2ccc(C(C)C)c3cc(Nc4cnnc(N5CC[C@@H](OC)[C@@H](F)C5)n4)ncc23)[C@@H]1C [Compound 288, 8-[(2R,3S)-3-[(ethanesulfonyl)methyl]-2-methylazetidin-1-yl]-N-{3-[(3S,4R)-3-fluoro-4-methoxypiperidin-1-yl]-1,2,4-triazin-5-yl}-5-(propan-2-yl)isoquinolin-3-amine]
0.0101 to 0.02 | 0.0201 to 0.03 | – | CC(C)c1ccc(N2C[C@H](CS(C)(=O)=O)[C@H]2C)c2cnc(Nc3ccnc(N4CCN(C)CC4)n3)cc12 [Compound 16, 8-[(2R,3S)-3-(methanesulfonylmethyl)-2-methylazetidin-1-yl]-N-[2-(4-methylpiperazin-1-yl)pyrimidin-4-yl]-5-(propan-2-yl)isoquinolin-3-amine]
